Test results: publication PMC3375280 (PLoS ONE, 2012)
Positions count from the first letter of the chain named.

Columns and labels:
[1] = molecular target: T1, AT1 C76A/F117C/C289A mutant receptor (Rattus norvegicus, UniProt P25095, C289A/C76A/F117C); test: competition binding, C76A/F117C/C289A mutant; conditions: for Kd ratio relative to WT (in parentheses): C76A/F117C/C289A / WT; for Kd: C76A/F117C/C289A, COS1 membranes, read-out: Binding affinity (Kd)
T1 construct: expressed in transfected cells; host or cells: COS1 cells (membranes)
T1 sequence (P25095 1-359 C76A/F117C/C289A): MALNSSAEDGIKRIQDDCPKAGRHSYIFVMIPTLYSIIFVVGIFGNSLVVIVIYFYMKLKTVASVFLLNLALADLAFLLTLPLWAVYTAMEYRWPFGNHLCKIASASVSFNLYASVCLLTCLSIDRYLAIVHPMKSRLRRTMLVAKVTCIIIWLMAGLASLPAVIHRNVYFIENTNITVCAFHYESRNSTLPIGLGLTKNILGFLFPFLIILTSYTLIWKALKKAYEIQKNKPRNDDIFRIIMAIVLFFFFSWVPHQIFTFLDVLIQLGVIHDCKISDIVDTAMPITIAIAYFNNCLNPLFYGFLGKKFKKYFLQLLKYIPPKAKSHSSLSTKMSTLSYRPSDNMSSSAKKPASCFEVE
Procedure: The Kd and Bmax values of receptor binding were determined by ^125I-[Sar^1, Ile^8] […] Membranes expressing the WT or mutant AT1 receptors were incubated with 100 pM ^125I-[Sar^1, Ile^8] […] The binding reaction was terminated by filtering the incubation mixture through Whatman GF/C glass filters, and the residues were extensively washed further with binding buffer. The bound ligand fraction was determined from the counts per minute (cpm) remaining on the membrane. Binding kinetics values were determined as previously described.

[2] = molecular target: T2, AT1 C76A/V116C/C289A mutant receptor (Rattus norvegicus, UniProt P25095, C289A/C76A/V116C); test: substituted cysteine accessibility mapping (SCAM), C76A/V116C/C289A; type: binding; design: key: Less and More indicate that the AT1 receptor is less or more accessible to the ligand pocket, respectively; Less and More indicate that the AT1 receptor is less or more accessible to the ligand pocket, respectively; No change; conditions: 1 µM ARB, […] MTSEA+, COS1 membranes
T2 construct: expressed in transfected cells; host or cells: COS1 cells (membranes)
T2 sequence (P25095 1-359 C76A/V116C/C289A): T1 sequence (P25095 1-359 C76A/F117C/C289A) with V116C, C117F
Description: (§1) As we reported previously, the percentage (%) inhibition of ^125I-[Sar^1, Ile^8] AngII binding by methanethiosulphonate ethyl-ammonium (MTSEA^+) reagent was approximately 30% on AT1 receptor, since Cys^76 in TM2 was accessible to water within the ligand pocket. In addition, mechanical stretching increased the accessibility of Cys^289 by inducing a change in the conformation of TM7 [22]. To differentiate between single and multiple movements of one or more native cysteines, we created TM3 residues that were substituted with cysteine one at a time from […] to Phe^117 using the C76A/C289A mutant genetic background and evaluated each triple mutant for MTSEA sensitivity.
(§2) Figure 3 Changes in cysteine accessibility in COS1 cells expressing C76A/C289A mutant receptors in which the transmenbrane 3 residues from Ala^106 to Phe^117, except for position 113, were successively replaced by cysteine. 1 µM of ARBs, n=4–9, *p<0.05 vs. no treatment. #p<0.05 vs. C76A/C289A.
The SCAM method has been used to probe relative changes in the conformation of constitutively active AT1 receptor [20]–[22] and other GPCRs, [30] by validating the presence of Cys residues within the ligand pocket. […]

[3] = molecular target: T3, AT1 C76A/S109C/C289A mutant receptor (Rattus norvegicus, UniProt P25095, C289A/C76A/S109C); test: substituted cysteine accessibility mapping (SCAM), C76A/S109C/C289A; type: binding; design: key: Less and More indicate that the AT1 receptor is less or more accessible to the ligand pocket, respectively; Less and More indicate that the AT1 receptor is less or more accessible to the ligand pocket, respectively; No change; conditions: 1 µM ARB, […] MTSEA+, COS1 membranes
T3 construct: expressed in transfected cells; host or cells: COS1
T3 sequence (P25095 1-359 C76A/S109C/C289A): T1 sequence (P25095 1-359 C76A/F117C/C289A) with S109C, C117F
Description: as §1, §2
(§3) The SCAM method has been used to probe relative changes in the conformation of constitutively active AT1 receptor [20]–[22] and other GPCRs, [30] by validating the presence of Cys residues within the ligand pocket. We used a highly reactive, sulfhydryl-specific reaction with methanethiosulfonyl ethyl-ammonium (MTSEA^+), which reacts a billion times faster with water-exposed and ionized Cys than with lipid-exposed and un-ionized Cys. In this reaction, a positively charged sulfonylmethylammonium group is added to a water-exposed Cys. Aliquots of cell membranes are incubated with or without ARBs for 20 min in phosphate buffer at room temperature. The membranes are then diluted with same buffer and centrifuged. After washout the cell membranes, the membranes are incubated with 2.5 mM MTSEA^+ at room temperature for 2 min in HEPES buffer (pH7.4). The Membranes are then diluted with same buffer to stop the reaction and centrifuged. One hundred µl aliquots were used to assay for ^125I-[Sar^1,Ile^8]Ang II binding. […]

[4] = molecular target: T1, AT1 C76A/F117C/C289A mutant receptor; test: substituted cysteine accessibility mapping (SCAM), C76A/F117C/C289A; type: binding; design: key: Less and More indicate that the AT1 receptor is less or more accessible to the ligand pocket, respectively; Less and More indicate that the AT1 receptor is less or more accessible to the ligand pocket, respectively; No change; conditions: 1 µM ARB, […] MTSEA+, COS1 membranes
Description: as §1, §2, §3

Row | SMILES | Kd ratio relative to WT (in parentheses) [1] [fold] | Kd [1] [nM] | Cysteine accessibility at Val116 compared to ligand (-) [2] | Cysteine accessibility at Ser109 compared to ligand (-) [3] | Cysteine accessibility at Phe117 compared to ligand (-) [4] | Cysteine accessibility at Ser109 compared to ligand (-) ([3]; listed as olmesartan) | Cysteine accessibility at Phe117 compared to ligand (-) ([4]; listed as olmesartan)
1 | CCCc1nc(C(C)(C)O)c(C(N)=O)n1Cc1ccc(-c2cc(Cc3ccc(O)cc3)ccc2-c2nnn[nH]2)cc1 [R794847] | 0.6 | 29 ± 9 |  |  |  |  | 
2 | CCCc1nc(C(C)(C)O)c(C(N)=O)n1Cc1ccc(-c2ccccc2-c2nnn[nH]2)cc1 [R239470] | 2.8 | 2.2 ± 0.2 | No change | No change | No change |  | 
3 | CCCc1nc(C(C)(C)O)c(C(=O)O)n1Cc1ccc(-c2ccccc2-c2nnn[nH]2)cc1 [Olmesartan, olmesartan, reference compound] | 1.0 | 2.4 ± 1.3 | No change | Less | More | less accessibility | greater accessibility
